Measured values published in US20260231994A1, “TASTE-ENHANCING COMPOSITION, METHOD FOR PRODUCING SAME, FOOD PRODUCT, AND METHOD FOR ENHANCING TASTE OF FOOD PRODUCT” (HOUSE FOODS GROUP INC., priority 2023, published 2026).

Columns and labels:
Type in all cases: in vivo
[1] = Experiment 6 sensory evaluation of cyclic dipeptides, “top sharp saltiness”
Procedure, shortened: (§1)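 Reduced-sodium curry roux (44 g in 300 g hot water) was spiked with cyclic dipeptide solutions matching heat-treated coriander or paprika levels, at 0.5% or 1.0% (w/w) final. Three evaluators scored each sample against unspiked reduced-sodium and common roux. Mean scores were graded F to AA.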

[2] = Experiment 6 sensory evaluation of cyclic dipeptides, “boosting of last flavor (aftertaste)”
Procedure, shortened: as §1

[3] = Experiment 6 sensory evaluation of cyclic dipeptides, “middle fullness (enhanced thickness)”
Procedure, shortened: as §1

[4] = Additive amount paprika 0.5% (heat-treated paprika equivalent aqueous solution, final 0.5% (w/w)), reduced-sodium curry roux
[5] = Additive amount paprika 0.5%, reduced-sodium curry roux
[6] = heat-treated paprika equivalent aqueous solution of cyclic dipeptide, final 1.0% (w/w) in reduced-sodium curry roux dispersion
[7] = heat-treated paprika equivalent aqueous solution of cyclic dipeptide, final 1.0% (w/w) in reduced-sodium curry roux dispersion, 3 evaluators
[8] = Additive amount coriander 0.5% (heat-treated coriander equivalent aqueous solution, final 0.5% (w/w)), reduced-sodium curry roux
[9] = Additive amount coriander 0.5%, reduced-sodium curry roux
[10] = heat-treated coriander equivalent aqueous solution of cyclic dipeptide, final 1.0% (w/w) in reduced-sodium curry roux dispersion
[11] = heat-treated coriander equivalent aqueous solution of cyclic dipeptide, final 1.0% (w/w) in reduced-sodium curry roux dispersion, 3 evaluators

Row | Substance | Top sharp saltiness Average [1, 4] [points] | Top sharp saltiness Evaluation [1, 5] | Top sharp saltiness Evaluation [1, 6] | Top sharp saltiness Average [1, 7] [points] | Bosting of last flavor Average [2, 5] [points] | Bosting of last flavor Evaluation [2, 5] | Bosting of last flavor Evaluation [2, 6] | Bosting of last flavor Average [2, 7] [points] | Middle fullness Average [3, 5] [points] | Middle fullness Evaluation [3, 5] | Middle fullness Evaluation [3, 6] | Middle fullness Average [3, 7] [points] | Top sharp saltiness Average [1, 8] [points] | Top sharp saltiness Evaluation [1, 9] | Top sharp saltiness Evaluation [1, 10] | Top sharp saltiness Average [1, 11] [points] | Bosting of last flavor Average [2, 9] [points] | Bosting of last flavor Evaluation [2, 9] | Bosting of last flavor Evaluation [2, 10] | Bosting of last flavor Average [2, 11] [points] | also measured
1 | cyclic (Phe-Asp) [Coriander ID 34] | 3.0 | AA (“AA” when it was 3.0 or higher) | AA (“AA” when it was 3.0 or higher) | 3.2 | 2.7 | A (“A” when it was 2.6 or higher and 2.9 or lower) | AA (“AA” when it was 3.0 or higher) | 3.2 | 2.8 | A (“A” when it was 2.6 or higher and 2.9 or lower) | AA (“AA” when it was 3.0 or higher) | 3.2 |  |  |  |  |  |  |  |  | 
2 | cyclic (Tyr-Asp) | 2.1 | B (“B” when it was 2.0 or higher and 2.5 or lower) | B (“B” when it was 2.0 or higher and 2.5 or lower) | 2.5 | 2.1 | B (“B” when it was 2.0 or higher and 2.5 or lower) | A (“A” when it was 2.6 or higher and 2.9 or lower) | 2.8 | 2.1 | B (“B” when it was 2.0 or higher and 2.5 or lower) | A (“A” when it was 2.6 or higher and 2.9 or lower) | 2.8 |  |  |  |  |  |  |  |  | 
3 | cyclic (Phe-Phe) [Coriander ID 43] |  |  |  |  |  |  |  |  |  |  |  |  | 2.3 | B (“B” when it was 2.0 or higher and 2.5 or lower) | A (“A” when it was 2.6 or higher and 2.9 or lower) | 2.8 | 3.2 | AA (“AA” when it was 3.0 or higher) | A (“A” when it was 2.6 or higher and 2.9 or lower) | 2.7 | Middle fullness Average [3, 9]: 2.3 points; Middle fullness Evaluation [3, 9]: B (“B” when it was 2.0 or higher and 2.5 or lower); Middle fullness Evaluation [3, 10]: A (“A” when it was 2.6 or higher and 2.9 or lower); Middle fullness Average [3, 11]: 2.7 points
4 | cyclic (Val-Phe) [Coriander ID 38] | 2.8 | A (“A” when it was 2.6 or higher and 2.9 or lower) | A (“A” when it was 2.6 or higher and 2.9 or lower) | 2.8 | 3.3 | AA (“AA” when it was 3.0 or higher) | AA (“AA” when it was 3.0 or higher) | 3.2 | 3.2 | AA (“AA” when it was 3.0 or higher) | A (“A” when it was 2.6 or higher and 2.9 or lower) | 2.8 |  |  |  |  |  |  |  |  | 
5 | cyclic (Phe-Tyr) [Coriander ID 41] | 1.8 | C (“C” when it was 1.1 or higher and 1.9 or lower) | A (“A” when it was 2.6 or higher and 2.9 or lower) | 2.7 | 2.0 | B (“B” when it was 2.0 or higher and 2.5 or lower) | A (“A” when it was 2.6 or higher and 2.9 or lower) | 2.8 | 2.0 | B (“B” when it was 2.0 or higher and 2.5 or lower) | AA (“AA” when it was 3.0 or higher) | 3.0 |  |  |  |  |  |  |  |  | 
6 | cyclic (Gly-Ser) [Coriander ID 5] |  |  |  |  |  |  |  |  |  |  |  |  | 1.7 | C (“C” when it was 1.1 or higher and 1.9 or lower) | C (“C” when it was 1.1 or higher and 1.9 or lower) | 1.8 | 2.2 | B (“B” when it was 2.0 or higher and 2.5 or lower) | B (“B” when it was 2.0 or higher and 2.5 or lower) | 2.3 | Middle fullness Average [3, 9]: 2.0 points; Middle fullness Evaluation [3, 9]: B (“B” when it was 2.0 or higher and 2.5 or lower); Middle fullness Evaluation [3, 10]: B (“B” when it was 2.0 or higher and 2.5 or lower); Middle fullness Average [3, 11]: 2.3 points
7 | cyclic (Glu-Phe) [Coriander ID 46] |  |  |  |  |  |  |  |  |  |  |  |  | 3.0 | AA (“AA” when it was 3.0 or higher) | B (“B” when it was 2.0 or higher and 2.5 or lower) | 2.5 | 2.8 | A (“A” when it was 2.6 or higher and 2.9 or lower) | B (“B” when it was 2.0 or higher and 2.5 or lower) | 2.5 | Middle fullness Average [3, 9]: 2.8 points; Middle fullness Evaluation [3, 9]: A (“A” when it was 2.6 or higher and 2.9 or lower); Middle fullness Evaluation [3, 10]: A (“A” when it was 2.6 or higher and 2.9 or lower); Middle fullness Average [3, 11]: 2.7 points
8 | cyclic (Glu-Tyr) [Coriander ID 19] | 2.3 | B (“B” when it was 2.0 or higher and 2.5 or lower) | A (“A” when it was 2.6 or higher and 2.9 or lower) | 2.8 | 2.5 | B (“B” when it was 2.0 or higher and 2.5 or lower) | A (“A” when it was 2.6 or higher and 2.9 or lower) | 2.8 | 2.7 | A (“A” when it was 2.6 or higher and 2.9 or lower) | AA (“AA” when it was 3.0 or higher) | 3.0 |  |  |  |  |  |  |  |  | 
9 | cyclic (Leu/Ile-Ser) [Coriander ID 24] | 2.9 | A (“A” when it was 2.6 or higher and 2.9 or lower) | C (“C” when it was 1.1 or higher and 1.9 or lower) | 1.7 | 2.9 | A (“A” when it was 2.6 or higher and 2.9 or lower) | B (“B” when it was 2.0 or higher and 2.5 or lower) | 2.2 | 3.1 | AA (“AA” when it was 3.0 or higher) | C (“C” when it was 1.1 or higher and 1.9 or lower) | 1.8 |  |  |  |  |  |  |  |  | 
10 | cyclic (Gly-Leu/Ile) [Coriander ID 25] | 3.0 | AA (“AA” when it was 3.0 or higher) | A (“A” when it was 2.6 or higher and 2.9 or lower) | 2.8 | 3.0 | AA (“AA” when it was 3.0 or higher) | A (“A” when it was 2.6 or higher and 2.9 or lower) | 2.7 | 2.7 | A (“A” when it was 2.6 or higher and 2.9 or lower) | A (“A” when it was 2.6 or higher and 2.9 or lower) | 2.7 |  |  |  |  |  |  |  |  | 
11 | cyclic (Gly-Tyr) [Coriander ID 44] |  |  |  |  |  |  |  |  |  |  |  |  | 1.7 | C (“C” when it was 1.1 or higher and 1.9 or lower) | B (“B” when it was 2.0 or higher and 2.5 or lower) | 2.2 | 2.3 | B (“B” when it was 2.0 or higher and 2.5 or lower) | A (“A” when it was 2.6 or higher and 2.9 or lower) | 2.8 | Middle fullness Average [3, 9]: 2.0 points; Middle fullness Evaluation [3, 9]: B (“B” when it was 2.0 or higher and 2.5 or lower); Middle fullness Evaluation [3, 10]: B (“B” when it was 2.0 or higher and 2.5 or lower); Middle fullness Average [3, 11]: 2.2 points
12 | cyclic (Glu-Gly) [Coriander ID 9] |  |  |  |  |  |  |  |  |  |  |  |  | 2.2 | B (“B” when it was 2.0 or higher and 2.5 or lower) | B (“B” when it was 2.0 or higher and 2.5 or lower) | 2.0 | 2.8 | A (“A” when it was 2.6 or higher and 2.9 or lower) | B (“B” when it was 2.0 or higher and 2.5 or lower) | 2.5 | Middle fullness Average [3, 9]: 2.8 points; Middle fullness Evaluation [3, 9]: A (“A” when it was 2.6 or higher and 2.9 or lower); Middle fullness Evaluation [3, 10]: AA (“AA” when it was 3.0 or higher); Middle fullness Average [3, 11]: 3.0 points
